Test results as given in the CombiSolv-Exp solvation set (Vermeire and Green 2021).

Assay: solvent given as SMILES

CC(N)=O
Conditions	solvation free energy, 298 K [kcal/mol]
in C=CCCCCCCC=C	-4.98
in C=CCCCCCCCCCCCCCC	-4.26

CCNc1nc(NC(C)(C)C)nc(OC)n1
Conditions	solvation free energy, 298 K [kcal/mol]
in O	-9

CCCSCCC
Conditions	solvation free energy, 298 K [kcal/mol]
in O	-1.28

CC(C)C(C)C
Conditions	solvation free energy, 298 K [kcal/mol]
in C=CCCCCCCCCCCCCCC	-3.31
in CC#N	-2.4
in CCCCCCCCCCCCCCCC	-3.41
in CCCCCCCCCCCCO	-3.07
in CCCCCO	-3.15
in CCCCO	-3.07
in O	2.36

CCN(C)N=O
Conditions	solvation free energy, 298 K [kcal/mol]
in CC(C)CC(C)(C)C	-4.43
in O	-5.73

COC(=O)c1cc([N+](=O)[O-])cc([N+](=O)[O-])c1
Conditions	solvation free energy, 298 K [kcal/mol]
in CN(C)C=O	-13.3
in O	-8.92

C1CCCNCC1
Conditions	solvation free energy, 298 K [kcal/mol]
in C1CCCCC1	-5.66

CCc1ccncc1
Conditions	solvation free energy, 298 K [kcal/mol]
in O	-4.73

ClC(Cl)(Cl)Br
Conditions	solvation free energy, 298 K [kcal/mol]
in CS(C)=O	-4.78

CCCCCOC(=O)CC
Conditions	solvation free energy, 298 K [kcal/mol]
in O	-2.11

FC(F)(F)CCl
Conditions	solvation free energy, 298 K [kcal/mol]
in CCCCCCCC(=O)OCC(COC(=O)CCCCCCC)OC(=O)CCCCCCC	-2.41
in O	0.06

Nc1ncnc2nc[nH]c12
Conditions	solvation free energy, 298 K [kcal/mol]
in C=CCCCCCCC=C	-10.2
in C=CCCCCCCCCCCCCCC	-9.84
in O	-17.4

CCCCCCCCC
Conditions	solvation free energy, 298 K [kcal/mol]
in Brc1ccccc1	-5.75
in C1CCCCC1	-6.23
in C1CCOC1	-5.94
in C1COCCO1	-5.1
in C=CCCCC	-6.1
in C=CCCCCCC	-5.95
in C=CCCCCCCCC	-5.89
in CC1COC(=O)O1	-3.44
in CC#N	-4.12
in CC(=O)N(C)C	-4.53
in CC(=O)O	-4.5
in CC(=O)c1ccccc1	-4.92
in CC(C)=O	-4.99
in CC(C)CC(C)(C)C	-5.95
in CC(C)CCCC(C)CCCC(C)CCCCC(C)CCCC(C)CCCC(C)C	-5.5
in CC(C)CCO	-5.21
in CC(C)O	-5.01
in CC(C)OC(C)C	-5.88
in CCBr	-5.96
in CCC#N	-4.68
in CCC(C)=O	-5.31
in CCCC#N	-5.01
in CCCC(=O)OCC	-5.57
in CCCC(C)=O	-5.41
in CCCCC	-6.12
in CCCCCC	-6.12
in CCCCCC(C)=O	-5.45
in CCCCCCC	-6.06
in CCCCCCCC	-5.98
in CCCCCCCCCC	-5.88
in CCCCCCCCCCCC	-5.79
in CCCCCCCCCCCCCCCC	-5.68
in CCCCCCCCO	-5.29
in CCCCCCOC(C)=O	-5.56
in CCCCO	-5.09
in CCCCOC(C)=O	-5.48
in CCCCOCCCC	-5.95
in CCCO	-4.94
in CCN(CC)CC	-6.06
in CCO	-4.84
in CCOC(=O)c1ccccc1C(=O)OCC	-4.53
in CCOC(C)=O	-5.32
in CCOCC	-5.97
in CCOCCOCCOCC	-5.25
in CCOc1ccccc1	-5.42
in CN1CCCC1=O	-4.3
in CN(C)C=O	-4.3
in CN(C)P(=O)(N(C)C)N(C)C	-4.86
in CNC=O	-3.82
in CO	-4.4
in COC(C)=O	-5.07
in COCCO	-4.28
in COc1ccccc1	-5.35
in CS(C)=O	-3.24
in Cc1ccc(C)cc1	-5.93
in Cc1ccccc1	-5.95
in Cc1ccccn1	-5.45
in ClC(Cl)(Cl)Cl	-6.2
in ClC(Cl)Cl	-6.04
in ClCCCl	-5.32
in ClCCl	-5.72
in Clc1ccccc1	-5.97
in FC(F)(F)C(F)(F)C(F)(F)C(F)(F)C(F)(F)C(F)(F)C(F)(F)C(F)(F)F	-3.92
in FC(F)(F)C(F)(F)C(F)(F)C(F)(F)C(F)(F)C(F)(F)F	-3.96
in Fc1ccccc1	-5.76
in ICI	-3.73
in N#CCCCCC#N	-3.46
in N#Cc1ccccc1	-4.97
in NC=O	-1.66
in NCCO	-2.24
in Nc1ccccc1	-4.09
in O	2.98
in O=C1CCCCC1	-5.24
in O=C1CCCO1	-3.71
in O=CN1CCOCC1	-3.47
in OCCO	-2.03
in OCCOCCO	-2.76
in OCCOCCOCCO	-2.92
in OCCOCCOCCOCCO	-3.13
in OCc1ccccc1	-4.36
in S=C=S	-6.17
in c1ccccc1	-5.89
in c1ccncc1	-5.13
